Test results published in ChEMBL document CHEMBL1201862, “PubChem BioAssay data set” (2004).
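Five concentrations, 48 hours, 96-well plates. GI50 is the concentration that inhibits growth by half.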 Active and inactive are the calls of the source. Rule as the data show it: active = GI50 up to about 1.1 µM and inactive = higher.

How the values were obtained:
Assay in all cases: NCI-60 cell line screen, 48 h
T47D = system: T47D
SW-620 = system: SW-620
NCI-H226 = system: NCI-H226
786-0 = system: 786-0
MOLT-4 = system: MOLT-4
K562 = system: K562
TK-10 = system: TK-10
Malme-3M = system: Malme-3M
SK-MEL-5 = system: SK-MEL-5
MDA-MB-231 = system: MDA-MB-231
SNB-19 = system: SNB-19
ACHN = system: ACHN
OVCAR-4 = system: OVCAR-4
HCT-15 = system: HCT-15
NCI-H23 = system: NCI-H23
NCI-H460 = system: NCI-H460
CAKI-1 = system: CAKI-1
MDA-N = system: MDA-N
RXF 393 = system: RXF 393
SK-OV-3 = system: SK-OV-3
CCRF-CEM = system: CCRF-CEM
MDA-MB-435 = system: MDA-MB-435
UACC-62 = system: UACC-62
A498 = system: A498
Hs-578T = system: Hs-578T
SF-295 = system: SF-295
UACC-257 = system: UACC-257
HCT-116 = system: HCT-116
SF-268 = system: SF-268
HCC 2998 = system: HCC 2998
COLO 205 = system: COLO 205
HOP-62 = system: HOP-62
HOP-92 = system: HOP-92
U-251 = system: U-251
KM12 = system: KM12
SN12C = system: SN12C
UO-31 = system: UO-31
OVCAR-8 = system: OVCAR-8
SK-MEL-28 = system: SK-MEL-28
SF-539 = system: SF-539
IGROV-1 = system: IGROV-1
OVCAR-5 = system: OVCAR-5
NCI-H522 = system: NCI-H522
M14 = system: M14
PC-3 = system: PC-3
HL-60 = system: HL-60
SNB-75 = system: SNB-75
OVCAR-3 = system: OVCAR-3
A549 = system: A549
RPMI-8226 = system: RPMI-8226
SK-MEL-2 = system: SK-MEL-2
EKVX = system: EKVX
LOX IMVI = system: LOX IMVI
BT-549 = system: BT-549
NCI/ADR-RES = system: NCI/ADR-RES
MCF7 = system: MCF7
DU-145 = system: DU-145
HT-29 = system: HT-29
SR = system: SR

## NC1=CN(Cc2ccccc2)C2=N/C(=C\c3ccccc3O)C(=O)N12
T47D
  GI50: 94.4 µM (inactive)
SW-620
  GI50: > 100 µM (inactive)
NCI-H226
  GI50: > 100 µM (inactive)
786-0
  GI50: > 100 µM (inactive)
MOLT-4
  GI50: 96.4 µM (inactive)
K562
  GI50: 73.3 µM (inactive)
TK-10
  GI50: > 100 µM (inactive)
Malme-3M
  GI50: > 100 µM (inactive)
SK-MEL-5
  GI50: 90.8 µM (inactive)
MDA-MB-231
  GI50: > 100 µM (inactive)
SNB-19
  GI50: > 100 µM (inactive)
ACHN
  GI50: > 100 µM (inactive)
OVCAR-4
  GI50: > 100 µM (inactive)
HCT-15
  GI50: > 100 µM
NCI-H23
  GI50: > 100 µM (inactive)
NCI-H460
  GI50: > 100 µM (inactive)
CAKI-1
  GI50: > 100 µM (inactive)
MDA-N
  GI50: > 100 µM (inactive)
RXF 393
  GI50: > 100 µM (inactive)
SK-OV-3
  GI50: > 100 µM (inactive)
CCRF-CEM
  GI50: 81.8 µM (inactive)
MDA-MB-435
  GI50: > 100 µM (inactive)
UACC-62
  GI50: > 100 µM (inactive)
A498
  GI50: > 100 µM (inactive)
Hs-578T
  GI50: > 100 µM (inactive)
SF-295
  GI50: > 100 µM (inactive)
UACC-257
  GI50: > 100 µM (inactive)
HCT-116
  GI50: > 100 µM (inactive)
SF-268
  GI50: > 100 µM (inactive)
HCC 2998
  GI50: > 100 µM (inactive)
COLO 205
  GI50: > 100 µM (inactive)
HOP-62
  GI50: > 100 µM (inactive)
HOP-92
  GI50: > 100 µM (inactive)
U-251
  GI50: 71.6 µM (inactive)
KM12
  GI50: > 100 µM (inactive)
SN12C
  GI50: > 100 µM (inactive)
UO-31
  GI50: 70.3 µM (inactive)
OVCAR-8
  GI50: > 100 µM (inactive)
SK-MEL-28
  GI50: > 100 µM (inactive)
SF-539
  GI50: > 100 µM (inactive)
IGROV-1
  GI50: > 100 µM (inactive)
OVCAR-5
  GI50: > 100 µM (inactive)
NCI-H522
  GI50: > 100 µM (inactive)
M14
  GI50: > 100 µM (inactive)
PC-3
  GI50: > 100 µM (inactive)
HL-60
  GI50: > 100 µM (inactive)
SNB-75
  GI50: > 100 µM (inactive)
OVCAR-3
  GI50: > 100 µM (inactive)
A549
  GI50: > 100 µM (inactive)
RPMI-8226
  GI50: 75.7 µM (inactive)
SK-MEL-2
  GI50: > 100 µM (inactive)
EKVX
  GI50: 52.1 µM (inactive)
LOX IMVI
  GI50: > 100 µM (inactive)
BT-549
  GI50: > 100 µM (inactive)
NCI/ADR-RES
  GI50: > 100 µM (inactive)
MCF7
  GI50: > 100 µM (inactive)
DU-145
  GI50: > 100 µM (inactive)
HT-29
  GI50: > 100 µM (inactive)

## CC(=O)Oc1ccc2cc(-c3ccccc3OC(C)=O)c(=O)oc2c1
T47D
  GI50: 25.7 µM (inactive)
SW-620
  GI50: 64.6 µM (inactive)
NCI-H226
  GI50: 27.7 µM (inactive)
786-0
  GI50: 25.6 µM (inactive)
MOLT-4
  GI50: 6.92 µM (inactive)
K562
  GI50: 38 µM (inactive)
Malme-3M
  GI50: 34.3 µM (inactive)
MDA-MB-231
  GI50: 82.8 µM (inactive)
SNB-19
  GI50: 46.9 µM (inactive)
ACHN
  GI50: 30.7 µM (inactive)
OVCAR-4
  GI50: 18.3 µM (inactive)
HCT-15
  GI50: 33.7 µM
NCI-H23
  GI50: 31.6 µM (inactive)
NCI-H460
  GI50: 86.5 µM (inactive)
MDA-N
  GI50: 49.5 µM (inactive)
CCRF-CEM
  GI50: 6.15 µM (inactive)
MDA-MB-435
  GI50: 10.9 µM (inactive)
A498
  GI50: 40.7 µM (inactive)
Hs-578T
  GI50: 56.5 µM (inactive)
SF-295
  GI50: 50.4 µM (inactive)
UACC-257
  GI50: > 100 µM (inactive)
HCT-116
  GI50: 66.5 µM (inactive)
SF-268
  GI50: 19.1 µM (inactive)
HCC 2998
  GI50: 48.1 µM (inactive)
COLO 205
  GI50: > 100 µM (inactive)
HOP-62
  GI50: 54.1 µM (inactive)
U-251
  GI50: 34 µM (inactive)
KM12
  GI50: 33.5 µM (inactive)
SN12C
  GI50: 76 µM (inactive)
UO-31
  GI50: 4.97 µM (inactive)
OVCAR-8
  GI50: 62.4 µM (inactive)
SR
  GI50: 7.69 µM (inactive)
SK-MEL-28
  GI50: 38.6 µM (inactive)
SF-539
  GI50: 59.3 µM (inactive)
OVCAR-5
  GI50: 69 µM (inactive)
NCI-H522
  GI50: 4.3 µM (inactive)
M14
  GI50: 51.4 µM (inactive)
PC-3
  GI50: > 100 µM (inactive)
HL-60
  GI50: 3.24 µM (inactive)
SNB-75
  GI50: 11.7 µM (inactive)
OVCAR-3
  GI50: 24.8 µM (inactive)
A549
  GI50: 32.1 µM (inactive)
RPMI-8226
  GI50: 28.8 µM (inactive)
SK-MEL-2
  GI50: 53.7 µM (inactive)
EKVX
  GI50: 25.2 µM (inactive)
LOX IMVI
  GI50: 64.9 µM (inactive)
BT-549
  GI50: 4.17 µM (inactive)
NCI/ADR-RES
  GI50: 36.5 µM (inactive)
MCF7
  GI50: 89.3 µM (inactive)
DU-145
  GI50: 21.7 µM (inactive)
HT-29
  GI50: > 100 µM (inactive)
